In brackets after ≈: the same amount, converted by molar mass. Where two headings read alike, the source gives them in different places.

Assay [1] concerns the target E. coli PBP3 (Escherichia coli (strain K12), UniProt P0AD68). Put plainly: E. coli PBP3 Bocillin-FL fluorescence polarization competition binding assay. In outline: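 This was a fluorescence polarization competition with fluorescent penicillin Bocillin-FL (0.1 μM final), read at 490/520 nm for 60 min immediately after its addition. The buffer was Hepes pH 8.0 with 300 mM NaCl and 5% glycerol, containing 1.5 μM PBP and test inhibitor up to 1000 μM. Potency is expressed as EC50 for reducing probe binding.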
In general terms: In fluorescence polarisation assays a small probe gives low polarisation when free and higher when bound to something large.

For assay [2], the target named is E. coli PBP1b (Escherichia coli (strain K12), UniProt P02919). The assay is described as follows: Radioligand competition binding assay with 14C-labeled boronic acid probe, PBP1b.
Assay [3] relates to engineered strain of Escherichia coli harboring CTX-M15. The assay is described as follows: microbe, parasite or virus in culture. Format: cell-based. The note with it: Escherichia coli, read-out: Microbiological Activity (MIC in mg/L), E. coli DH5α/pLBII-CTX-M15, engineered strain producing CTX-M15.
In assay [4] the test system is E. coli DH5α empty pLBII vector control strain. The assay is described as follows: microbe, parasite or virus in culture. Type of assay: cell-based, Escherichia coli. The conditions noted are these: Escherichia coli, read-out: Microbiological Activity (MIC in mg/L), E. coli DH5α/pLBII. The method, boiled down: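 MIC was the lowest concentration visibly free of growth after 16–20 h at 37 °C, against 5×10^5 CFU/mL of the empty-pLBII DH5α control strain. Twofold compound dilutions were made in cation-adjusted Mueller-Hinton broth.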

The target in assay [5] is E. coli PBP2 (Escherichia coli (strain K12), UniProt P0AD65). The assay is described as follows: E. coli PBP2 Bocillin-FL fluorescence polarization competition binding assay. The conditions noted are these: fluorescence polarization competition binding with Bocillin-FL; read-out: E. coli K12 PBP2 Potency (EC50). From the text:
To determine the ability of boronic acid-based test PBP inhibitors to bind Penicillin Binding Proteins (PBPs), Bocillin-FL (fluorescently-labeled penicillin V; ThermoFisher Scientific) was used in a fluorescence polarization (FP) competition binding assay to assess inhibitor binding to PBP2, PBP3 or PBP4 from Escherichia coli. PBPs were cloned and purified as described previously (King, D. T, et al., ACS Infectious Diseases 2015, 1, 175-184). To establish assay conditions for competition binding, an enzyme titration/saturation binding experiment was initially performed. Bocillin-FL was prepared at 0.2 μM in a buffer comprised of 50 mM Hepes (pH 8.0), 300 mM NaCl and 5% (v/v) glycerol. Saturation binding was performed by mixing 40 μl of PBP solutions ranging in concentrations from 0-12 μM with 40 μl of the 0.2 μM Bocillin-FL solution, in individual wells of a black 384-well microplate. FP was measured immediately upon mixing (Excitation, 490 nm; Emission, 520 nm; g-factor, 0.96), using a Cytation3 (BioTek) microplate reader and measured continuously for up to 120 minutes. […] For all PBPs the FP signal approached saturation with 1.5 μM PBP (final concentration). […] Assays (80 μl final volume) were performed with PBPs at a final concentration of 1.5 μM, Bocillin-FL at 0.1 μM and beta-lactam concentrations that ranged from 0-1000 μM. […] Bocillin-FL was added and the FP immediately measured for 60 minutes (90 minutes for PBP2). The beta-lactam potency was reported as the concentration of beta-lactam required to reduce binding of Bocillin-FL by […] (EC50). […] Binding assays for boronic acid PBP inhibitors were performed in an identical fashion.

In assay [6] the test system is E. coli ATCC 25922. Put plainly: Broth microdilution MIC, E. coli ATCC 25922. Format: cell-based. The note with it: Escherichia coli, ATCC25922; E. coli ATCC 25922, broth microdilution; read-out: MIC E. coli 25922. The method, boiled down:
(§1)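 CLSI broth microdilution in cation-supplemented Mueller-Hinton broth; 2-fold compound dilutions inoculated at 5×10^5 CFU/mL from a 3-5 h log-phase culture. Plates incubated 16-20 hours at 37° C; MIC read visually as lowest concentration with no growth.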
Background: Broth dilution looks for growth in wells or tubes with falling amounts of substance.

Assay [7] relates to E. coli AG100. The assay is described as follows: Broth microdilution MIC, E. coli AG100 (wild-type parent). Type of assay: cell-based. The conditions noted are these: Escherichia coli; wild-type parent E. coli AG100, broth microdilution; read-out: MIC E. coli AG100. The method, boiled down: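 Starting inoculum of 5×10^5 CFU/mL, from colonies grown 3-5 h in Mueller-Hinton broth with divalent cations, added to two-fold compound dilution series.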

In assay [8] the test system is E. coli 901C. The assay is described as follows: microbe, parasite or virus in culture. Type of assay: cell-based. The conditions noted are these: Escherichia coli; hyper-permeable E. coli 901C, broth microdilution; read-out: MIC E. coli 901C. In outline:
as §1

Assay [9] deals with E. coli AG100A. Put plainly: microbe, parasite or virus in culture. Type of assay: cell-based. The conditions noted are these: Escherichia coli, read-out: MIC E. coli AG100A. In outline:
as §1

In assay [10] the test system is E. coli D22. Put plainly: microbe, parasite or virus in culture. Type of assay: cell-based. The conditions noted are these: Escherichia coli; hyper-permeable E. coli D22, broth microdilution; read-out: MIC E. coli D22. In outline:
as §1

The test system of assay [11] is K. pneumoniae SI-117. Put plainly: microbe, parasite or virus in culture. Type of assay: cell-based. The note with it: Klebsiella pneumoniae, SI117, read-out: MIC K. pneumoniae SI-117. The method, boiled down:
as §1

The subject of assay [12] is K. pneumoniae UMM. The assay is described as follows: microbe, parasite or virus in culture. Format: cell-based. The conditions noted are these: Klebsiella pneumoniae; K. pneumoniae UMM producing SHV-5 and KPC-2; read-out: MIC K. pneumoniae UMM. The method, boiled down:
as §1

Assay [13] concerns K. pneumoniae 848844. The assay is described as follows: microbe, parasite or virus in culture. The conditions noted are these: Klebsiella pneumoniae; K. pneumoniae 848844 producing SHV-11 and KPC-2; read-out: MIC K. pneumoniae 848844. Type of assay: cell-based, Klebsiella pneumoniae. In outline:
as §1

Assay [14] deals with N. gonorrhoeae ATCC 49226. Put plainly: Liquid broth MIC, N. gonorrhoeae ATCC 49226. The note with it: Neisseria gonorrhoeae, ATCC49226; N. gonorrhoeae ATCC 49226, liquid broth; read-out: Minimum Inhibitory Concentration, N. gonorrhoeae ATCC 49226. Format: cell-based. The method, boiled down: (§2)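 MIC taken by eye as the lowest well lacking growth after 40-42 h at 36° C under 5% CO2. Compounds were 2-fold serially diluted; the starting inoculum of 5×10^5 CFU/mL came from direct colony suspensions grown on Kellogg's-supplemented GC agar.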

The test system of assay [15] is N. gonorrhoeae FA1090. The assay is described as follows: Liquid broth MIC, N. gonorrhoeae FA1090. Format: cell-based. The conditions noted are these: Neisseria gonorrhoeae; N. gonorrhoeae FA1090, liquid broth; read-out: Minimum Inhibitory Concentration, N. gonorrhoeae FA1090. The method, boiled down: as §2
Assay [16] has as its system N. gonorrhoeae WHO F. Put plainly: Liquid broth MIC, N. gonorrhoeae WHO F. Type of assay: cell-based. The note with it: Neisseria gonorrhoeae; N. gonorrhoeae WHO F, liquid broth; read-out: Minimum Inhibitory Concentration, N. gonorrhoeae WHO F. In outline: as §2
In assay [17] the test system is N. gonorrhoeae FA19. Put plainly: Liquid broth MIC, N. gonorrhoeae FA19. Format: cell-based. The note with it: Neisseria gonorrhoeae; N. gonorrhoeae FA19, liquid broth; read-out: Minimum Inhibitory Concentration, N. gonorrhoeae FA19. In outline:
as §2

[18] abbreviates: fluorescence polarization competition binding with Bocillin-FL, read-out: E. coli K12 PBP3 Potency.

Chain of E. coli PBP2 (P0AD65 whole entry): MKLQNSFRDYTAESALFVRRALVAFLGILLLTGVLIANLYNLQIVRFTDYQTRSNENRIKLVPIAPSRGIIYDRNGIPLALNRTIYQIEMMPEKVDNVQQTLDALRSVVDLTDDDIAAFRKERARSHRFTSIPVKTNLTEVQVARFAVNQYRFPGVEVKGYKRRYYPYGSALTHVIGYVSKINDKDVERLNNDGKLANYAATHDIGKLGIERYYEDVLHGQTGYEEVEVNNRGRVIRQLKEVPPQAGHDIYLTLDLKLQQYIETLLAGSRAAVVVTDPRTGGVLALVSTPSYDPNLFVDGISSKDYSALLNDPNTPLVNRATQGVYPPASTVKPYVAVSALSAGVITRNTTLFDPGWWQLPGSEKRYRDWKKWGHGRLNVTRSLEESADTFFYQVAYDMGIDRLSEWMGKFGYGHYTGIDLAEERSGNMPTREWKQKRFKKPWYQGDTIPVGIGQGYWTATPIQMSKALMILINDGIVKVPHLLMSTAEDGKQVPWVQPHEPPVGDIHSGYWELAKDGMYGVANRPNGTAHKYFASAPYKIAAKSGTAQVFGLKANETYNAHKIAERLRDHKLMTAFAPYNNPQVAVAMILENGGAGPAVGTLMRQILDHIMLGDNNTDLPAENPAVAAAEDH
Chain of E. coli PBP3 (P0AD68 whole entry): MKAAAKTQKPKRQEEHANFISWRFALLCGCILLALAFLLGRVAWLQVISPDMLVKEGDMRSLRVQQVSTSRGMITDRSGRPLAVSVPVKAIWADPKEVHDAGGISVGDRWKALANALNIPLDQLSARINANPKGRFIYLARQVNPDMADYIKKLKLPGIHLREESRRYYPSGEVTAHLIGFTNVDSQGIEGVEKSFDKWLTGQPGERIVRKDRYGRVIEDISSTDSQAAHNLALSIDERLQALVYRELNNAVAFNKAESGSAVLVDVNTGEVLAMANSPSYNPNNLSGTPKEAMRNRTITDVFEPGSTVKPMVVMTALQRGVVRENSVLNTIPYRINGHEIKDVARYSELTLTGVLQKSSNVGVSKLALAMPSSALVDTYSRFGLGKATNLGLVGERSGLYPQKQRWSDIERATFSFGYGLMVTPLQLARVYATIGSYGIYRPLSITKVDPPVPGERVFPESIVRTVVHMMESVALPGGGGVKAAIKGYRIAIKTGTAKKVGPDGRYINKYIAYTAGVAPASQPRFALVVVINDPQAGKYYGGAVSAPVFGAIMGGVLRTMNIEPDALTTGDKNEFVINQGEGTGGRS
Chain of E. coli PBP1b (P02919 whole entry): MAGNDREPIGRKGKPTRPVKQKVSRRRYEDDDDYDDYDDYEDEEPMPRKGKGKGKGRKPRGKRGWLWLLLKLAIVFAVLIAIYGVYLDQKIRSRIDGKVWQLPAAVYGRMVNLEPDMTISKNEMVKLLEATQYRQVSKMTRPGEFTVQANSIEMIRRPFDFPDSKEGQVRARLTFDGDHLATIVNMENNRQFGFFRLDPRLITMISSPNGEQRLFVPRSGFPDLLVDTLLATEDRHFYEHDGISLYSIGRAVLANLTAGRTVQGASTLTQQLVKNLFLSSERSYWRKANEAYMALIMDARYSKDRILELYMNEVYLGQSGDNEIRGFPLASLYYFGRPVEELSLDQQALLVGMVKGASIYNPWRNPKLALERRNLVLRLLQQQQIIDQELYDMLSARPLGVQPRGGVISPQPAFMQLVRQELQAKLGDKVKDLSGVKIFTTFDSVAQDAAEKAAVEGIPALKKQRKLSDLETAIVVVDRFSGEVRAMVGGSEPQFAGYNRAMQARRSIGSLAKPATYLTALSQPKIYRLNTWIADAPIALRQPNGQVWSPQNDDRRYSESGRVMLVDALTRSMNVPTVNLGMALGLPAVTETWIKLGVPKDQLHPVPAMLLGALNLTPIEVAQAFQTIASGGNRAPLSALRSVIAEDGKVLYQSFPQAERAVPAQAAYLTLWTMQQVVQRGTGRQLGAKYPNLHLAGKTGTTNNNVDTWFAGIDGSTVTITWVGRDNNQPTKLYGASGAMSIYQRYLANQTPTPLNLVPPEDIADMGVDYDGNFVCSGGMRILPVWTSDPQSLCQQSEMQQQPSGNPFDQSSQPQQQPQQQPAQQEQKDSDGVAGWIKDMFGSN

Turning to `CCN1CCN(C(=O)NC(CNC(=O)c2cccc(O)c2O)C(=O)N[C@H]2Cc3cccc(C(=O)O)c3OB2O)C(=O)C1=O` (stereo partly drawn) [Example 36, (3R)-3-(3-(2,3-dihydroxybenzamido)-2-(4-ethyl-2,3-dioxopiperazine-1-carboxamido)propanamido)-2-hydroxy-3,4-dihydro-2H-benzo[e][1,2]oxaborinine-8-carboxylic acid], the values for the EC50 in assay [1] and in [2] were more than 500 µM and less than 10 µM, respectively. Also, the MIC in [3] and in [4] was more than 512 mg/L in each case.

For `CCN1CCN(C(=O)NC(C(=O)N[C@H]2Cc3cccc(C(=O)O)c3OB2O)c2ccc(O)nc2)C(=O)C1=O` (stereo partly drawn) [Example 41, (3R)-3-(2-(4-ethyl-2,3-dioxopiperazine-1-carboxamido)-2-(6-hydroxypyridin-3-yl)acetamido)-2-hydroxy-3,4-dihydro-2H-benzo[e][1,2]oxaborinine-8-carboxylic acid], the EC50 was 30 to 500 µM in assay [1] and less than 10 µM in assay [2]. The MIC in assay [3] and in [4] was 32 to 64 mg/L (≈ 60.9 to 122 µM) each time.

For `CCN1CCN(C(=O)NC(C(=O)N[C@H]2Cc3cccc(C(=O)O)c3OB2O)c2ccc(OC)cn2)C(=O)C1=O` (stereo partly drawn) [Example 81, (3R)-3-(2-(4-ethyl-2,3-dioxopiperazine-1-carboxamido)-2-(5-methoxypyridin-2-yl)acetamido)-2-hydroxy-3,4-dihydro-2H-benzo[e][1,2]oxaborinine-8-carboxylic acid], the EC50 in assay [1] and in assay [5] was 30 to 500 µM throughout. Further, the MIC in assay [3] lay in the range of 128 to 256 mg/L (≈ 237 to 475 µM).

Consider `C[C@@H](O)[C@@H](NC(=O)N1CCN(CCF)C(=O)C1=O)C(=O)N[C@H]1Cc2ccc(F)c(C(=O)O)c2OB1O` [Example 126, (R)-7-fluoro-3-((2R,3R)-2-(4-(2-fluoroethyl)-2,3-dioxopiperazine-1-carboxamido)-3-hydroxybutanamido)-2-hydroxy-3,4-dihydro-2H-benzo[e][1,2]oxaborinine-8-carboxylic acid], for which the EC50 in assay [1] (setting [18]) and in [5] was more than 500 µM throughout. The MIC is 8 to 16 µg/mL in assay [6]; 8 to 16 µg/mL in [7]; 2 to 4 µg/mL in assay [8]; 8 to 16 µg/mL in assay [9]; 2 to 4 µg/mL in assay [10]; 8 to 16 µg/mL in [11]. For the same molecule, the MIC in assay [12] fell in the range of 8 to 16 µg/mL; in assay [13], 32 to 64 µg/mL.

For the molecule `CCN1CCN(C(=O)NC(C(=O)N[C@H]2Cc3ccc(F)c(C(=O)O)c3OB2O)c2cccs2)C(=O)C1=O` (stereo partly drawn) [Example 142, (3R)-3-(2-(4-ethyl-2,3-dioxopiperazine-1-carboxamido)-2-(thiophen-2-yl)acetamido)-7-fluoro-2-hydroxy-3,4-dihydro-2H-benzo[e][1,2]oxaborinine-8-carboxylic acid], the EC50 in assay [1] was 30 to 500 µM; in [5] it was more than 500 µM. For the same molecule, the MIC in assay [14] was 0.25 to 0.5 µg/mL (≈ 0.47 to 0.939 µM); in assay [15], less than 0.125 µg/mL; in [16], less than 0.125 µg/mL; in assay [17], 1 to 2 µg/mL (≈ 1.88 to 3.76 µM).

With `CCN1CCN(C(=O)NC(C(=O)N[C@H]2Cc3cccc(C(=O)O)c3OB2O)c2ccc(N)nc2)C(=O)C1=O` (stereo partly drawn) [Example 148, (3R)-3-(2-(6-aminopyridin-3-yl)-2-(4-ethyl-2,3-dioxopiperazine-1-carboxamido)acetamido)-2-hydroxy-3,4-dihydro-2H-benzo[e][1,2]oxaborinine-8-carboxylic acid], the EC50 was 30 to 500 µM in assay [1] and more than 500 µM in assay [5]. The MIC in assay [6] lay in the range of 8 to 16 µg/mL; in assay [7], 32 to 64 µg/mL; in assay [8] it was 0.5 to 1 µg/mL; in assay [9], 2 to 4 µg/mL; in assay [10], 2 to 4 µg/mL; in assay [11], 32 to 64 µg/mL. Moreover, the MIC in assay [12] and in assay [13] was 32 to 64 µg/mL throughout.

Turning to `CCN1CCN(C(=O)NC(C(=O)N[C@H]2Cc3cccc(C(=O)O)c3OB2O)c2ccc(NS(C)(=O)=O)cn2)C(=O)C1=O` (stereo partly drawn) [Example 154, (3R)-3-(2-(4-ethyl-2,3-dioxopiperazine-1-carboxamido)-2-(5-(methylsulfonamido)pyridin-2-yl)acetamido)-2-hydroxy-3,4-dihydro-2H-benzo[e][1,2]oxaborinine-8-carboxylic acid], the EC50 in assay [1] and in assay [5] was 30 to 500 µM in each case. Also, the MIC in [6] was more than 128 µg/mL; in assay [7], more than 128 µg/mL; in [8], 0.5 to 1 µg/mL; in assay [9], 8 to 16 µg/mL; in [10], 8 to 16 µg/mL; in [11], more than 128 µg/mL. For the same molecule, the MIC in assay [12] and in [13] was more than 128 µg/mL throughout.

`CCN1CCN(C(=O)N[C@@H](C(=O)N[C@H]2Cc3cccc(C(=O)O)c3OB2O)c2ccc(O)c(F)c2)C(=O)C1=O` [Example 156, (R)-3-((R)-2-(4-ethyl-2,3-dioxopiperazine-1-carboxamido)-2-(3-fluoro-4-hydroxyphenyl)acetamido)-2-hydroxy-3,4-dihydro-2H-benzo[e][1,2]oxaborinine-8-carboxylic acid]: the EC50 in [1] (setting [18]) was less than 30 µM; in assay [5], more than 500 µM. Further, the MIC in assay [6] was 32 to 64 µg/mL; in [7] it was 32 to 64 µg/mL; in assay [8], less than 0.25 µg/mL; in assay [9], 2 to 4 µg/mL; in assay [10], 2 to 4 µg/mL; in assay [11], 32 to 64 µg/mL. Also, the MIC in assay [12] and in assay [13] was 32 to 64 µg/mL in each case.

(Values after patent US12173018B2, “Penicillin-binding protein inhibitors” (priority 2018, dated 2024).)
